Assay results: patent US11986445B2, “Nutritional composition and infant formula for promoting myelination of the brain” (SOCIÉTÉ DES PRODUITS NESTLÉ S.A., priority 2015, dated 2024)

system: brain myelination (myelin water fraction); experiment: Cross-sectional correlation of infant formula nutrient content with brain myelination (MRI myelin water fraction); assay type: in vivo, human; conditions: children up to 5 years fed different infant formulas
Text: This technique provides a quantitative measure, the Myelin Water Fraction (MWF), which is a surrogate marker of myelin content in the brain.
Infants included in this study were drawn from a larger longitudinal study of normal brain and behavioral development: the Brown University Assessment of Myelination and Behavior Across Maturation (BAMBAM). To focus on neurotypical development, children with known potential risk factors for learning, neurologic, or psychiatric disorders were specifically excluded during recruitment and enrollment. Thus, children with in utero alcohol or illicit substance exposure, premature (<37 weeks gestation) or multiple birth, fetal ultrasound abnormalities, complicated pregnancy (e.g., preeclampsia), APGAR scores <8, NICU admission, neurological disorder (e.g., head injury, epilepsy), psychiatric or developmental disorders in the infant, parents or siblings (including maternal depression requiring medication) were excluded. Ongoing screenings, such as the MCAT for autism, or CBCL for behavioral problems, were further used to remove enrolled children with clinically concerning behaviors or overt medical conditions (such as autism spectrum disorders).
A combination of retrospective and prospective data were acquired from parents via detailed medical histories and parental interview on the type of infant formula used, percentage of breastfeeding to formula feeding, and length of exclusive breastfeeding. This information was updated at each study visit, which occurred approximately every 6 months for children under 2 years, and yearly for older children. Using this information, children were categorized into one of 2 groups: #1. Exclusively formula-fed; and #2. Exclusively breastfed for at least 90 days (3 months). Children who were fed a combination of breastmilk and formula within 3 months were excluded from our analysis. Infants within the exclusively formula-fed group were further sub-divided based on parental reports of the main infant formula used throughout the first 3 months. Main formula was defined as that given 90% of the time or more (in the case were parents used an alternate brand during vacation, for example).
Using these criteria, 94 exclusively formula-fed infants and young children were selected into group #1. These included 13 children who received formula #2; 28 who received formula #5; 8 who received formula #3; 39 who received formula #4; 5 who received formula #1 and 1 who received formula #6. A sample of 52 exclusively breast-fed infants were also selected and matched to the over formula-fed group with regards to mean age, gestation duration, birth weight, male:female ratio, ethnicity ratio, maternal education, family size, and number of languages spoken in the home (in addition to English).

Row | Molecule | association of nutrient with myelination (myelin water fraction) over time in the brain
1 | CCCCC/C=C\C/C=C\C/C=C\C/C=C\CCCC(=O)O [AA, arachidonic acid] | an association with myelination (myelin water fraction) was observed
2 | [Ca+2] [calcium] | an association with myelination (myelin water fraction) was observed
3 | [Mg+2] [magnesium] | an association with myelination (myelin water fraction) was observed
4 | [P] [phosphorus] | an association with myelination (myelin water fraction) was observed
5 | [Zn] [zinc] | an association with myelination (myelin water fraction) was observed
6 | Sphingomyelin | an association with myelination (myelin water fraction) was observed
7 | iron | an association with myelination (myelin water fraction) was observed
8 | phosphatidylcholine | an association with myelination (myelin water fraction) was observed
9 | phosphatidylinositol | an association with myelination (myelin water fraction) was observed
10 | vitamin B12 | an association with myelination (myelin water fraction) was observed

system: Neural Progenitor Cell (NPCs) from E14 mouse neocortex; experiment: Neurosphere counts in 96-well plates; assay type: cell-based; conditions: Sphingomyelin Low dose (Dose 1: 10 nM); cells grown for 2 days
Experimental: (§1) Generation of Neural Progenitor Cell (NPCs) Libraries: • dissociation of E14 mouse neocortex
(§2) E14 pup brains were harvested and placed in ice cold DPBS (1×)+10% Pen/Strep, then they were dissected using a dissecting microscope. From each pup, one brain hemisphere was placed in 2 ml of Neurobasal media/10% P/S/10× Hepes and another brain hemisphere was placed in another tube.
(§3) The tissue from each tube was aseptically and manually dissociate into single cells, neurobasal complete medium was added and centrifuged at 130 G for 5 min. The tissue was then re-suspended in neurobasal complete media with GF and placed in a corning suspension culture dish 100 mm×20 mm (#430591). Cells were passage twice using a 1:3 ratio, after what they were centrifuged (130 g 5 min), resuspended in freezing media (10% DMSO and neurobasal complete media, no GF) and frozen in liquid nitrogen (LN2).
Vials were remove from LN2, quickly defrosted, and cells were transferred, dropwise, to a 15 mL conical flask. 10 mls of complete neurobasal media was added. Cells were transferred to a suspension culture dish, and placed in an incubator for 2 hours. At 1.5 hours, cells were examined. Based on the health and number, the number of plates needed was estimated and the appropriate amount of complete neurobasal media was warmed. After 2 hours, cells were put in a 15 mL conical tube and spun at 130 G, 5 min. […]

Row | Molecule | number of neurospheres, Average (Mean)
11 | Sphingomyelin | 94

system: Neural Progenitor Cell (NPCs) from E14 mouse neocortex; experiment: Monolayer culture NPC proliferation assay; assay type: cell-based; conditions: Sphingomyelin low dose (Dose 1: 10 nM); 3 days culture
Experimental: as §1, §2, §3
Vials were remove from LN2, quickly defrosted, and cells were transferred, dropwise, to a 15 mL conical flask. 10 mls of complete neurobasal media was added. Cells were transferred to a suspension culture dish, and placed in an incubator for 2 hours. At 1.5 hours, cells were examined. […]
EDU incorporation was measured using Click-iT® EdU Alexa Fluor® 555 Imaging Kit (Life technologies, #c10338). […]

Row | Molecule | neuronal proliferation, DAPI
12 | Sphingomyelin | 280
